Where two headings read alike, the source gives them in different places.
Columns and labels:
Test in all cases: SelectScreen Kinase Profiling, single point inhibition and IC50 for off-target kinases
Format in all cases: biochemical
off-target kinases [1] = target: T1, off-target kinases (Homo sapiens, UniProt Q9UPZ9); conditions: ICK, LanthaScreen Binding
T1 sequence (Q9UPZ9 1-632): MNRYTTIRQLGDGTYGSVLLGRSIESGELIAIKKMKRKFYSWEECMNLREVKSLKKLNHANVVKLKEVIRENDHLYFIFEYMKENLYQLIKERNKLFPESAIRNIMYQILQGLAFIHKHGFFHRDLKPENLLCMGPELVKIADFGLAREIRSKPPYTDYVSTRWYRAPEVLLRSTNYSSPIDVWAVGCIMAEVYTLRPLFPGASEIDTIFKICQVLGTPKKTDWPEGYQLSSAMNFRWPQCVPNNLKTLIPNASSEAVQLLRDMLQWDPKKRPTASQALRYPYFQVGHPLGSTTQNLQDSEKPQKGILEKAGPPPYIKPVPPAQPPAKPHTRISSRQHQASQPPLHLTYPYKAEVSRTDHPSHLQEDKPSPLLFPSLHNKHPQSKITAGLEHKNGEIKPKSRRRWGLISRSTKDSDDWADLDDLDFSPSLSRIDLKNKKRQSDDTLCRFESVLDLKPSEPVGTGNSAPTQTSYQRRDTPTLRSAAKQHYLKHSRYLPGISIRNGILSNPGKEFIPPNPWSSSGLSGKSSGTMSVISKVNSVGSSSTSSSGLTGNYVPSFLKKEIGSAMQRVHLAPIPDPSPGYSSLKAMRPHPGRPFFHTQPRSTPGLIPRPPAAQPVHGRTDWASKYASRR

off-target kinases [2] = target: T2, off-target kinases (Homo sapiens, UniProt Q13237); conditions: PRKG2 (PKG2), ZLYTE, ATP Km app
T2 sequence (Q13237 1-762): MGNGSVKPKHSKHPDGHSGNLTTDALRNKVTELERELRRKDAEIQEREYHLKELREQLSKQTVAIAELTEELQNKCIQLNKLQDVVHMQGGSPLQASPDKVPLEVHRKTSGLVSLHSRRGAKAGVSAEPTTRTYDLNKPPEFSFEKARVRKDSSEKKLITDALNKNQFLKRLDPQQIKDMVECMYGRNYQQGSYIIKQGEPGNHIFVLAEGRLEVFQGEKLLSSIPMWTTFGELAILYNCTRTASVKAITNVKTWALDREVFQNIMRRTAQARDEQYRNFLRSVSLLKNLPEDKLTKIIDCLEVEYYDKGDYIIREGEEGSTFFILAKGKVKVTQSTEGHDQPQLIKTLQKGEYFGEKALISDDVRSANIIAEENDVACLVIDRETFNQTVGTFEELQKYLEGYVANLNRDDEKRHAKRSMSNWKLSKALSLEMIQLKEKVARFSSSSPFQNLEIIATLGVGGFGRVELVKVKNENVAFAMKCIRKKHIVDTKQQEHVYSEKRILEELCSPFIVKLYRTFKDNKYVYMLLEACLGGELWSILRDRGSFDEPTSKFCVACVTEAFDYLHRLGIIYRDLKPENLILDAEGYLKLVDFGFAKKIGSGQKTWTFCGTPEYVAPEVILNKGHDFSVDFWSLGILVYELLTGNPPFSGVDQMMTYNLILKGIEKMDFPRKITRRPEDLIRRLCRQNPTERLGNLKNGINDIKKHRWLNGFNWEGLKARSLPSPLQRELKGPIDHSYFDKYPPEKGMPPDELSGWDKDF

off-target kinases [3] = target: off-target kinases (Homo sapiens, UniProt Q9UK32); conditions: RPS6KA6 (RSK4), ZLYTE, ATP Km app
off-target kinases [4] = target: off-target kinases (Homo sapiens, UniProt Q13555); conditions: CAMK2G (CaMKII gamma), LanthaScreen Binding
off-target kinases [5] = target: off-target kinases (Homo sapiens, UniProt Q15759); conditions: MAPK11 (p38 beta), ZLYTE, ATP Km app
Sequence of off-target kinases (Homo sapiens, UniProt Q15759) (Q15759 whole entry): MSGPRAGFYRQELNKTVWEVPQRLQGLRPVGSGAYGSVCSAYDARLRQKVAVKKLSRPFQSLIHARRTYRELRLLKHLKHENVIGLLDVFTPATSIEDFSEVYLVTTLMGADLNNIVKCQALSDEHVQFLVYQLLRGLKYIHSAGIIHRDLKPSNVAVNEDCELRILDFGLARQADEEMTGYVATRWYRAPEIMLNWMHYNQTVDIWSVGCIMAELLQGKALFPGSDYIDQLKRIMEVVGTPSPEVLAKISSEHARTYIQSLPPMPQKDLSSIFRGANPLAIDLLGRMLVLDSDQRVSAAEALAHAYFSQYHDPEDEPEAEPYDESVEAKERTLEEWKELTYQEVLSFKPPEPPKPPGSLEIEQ

Sequence of off-target kinases (Homo sapiens, UniProt Q13555) (Q13555 whole entry): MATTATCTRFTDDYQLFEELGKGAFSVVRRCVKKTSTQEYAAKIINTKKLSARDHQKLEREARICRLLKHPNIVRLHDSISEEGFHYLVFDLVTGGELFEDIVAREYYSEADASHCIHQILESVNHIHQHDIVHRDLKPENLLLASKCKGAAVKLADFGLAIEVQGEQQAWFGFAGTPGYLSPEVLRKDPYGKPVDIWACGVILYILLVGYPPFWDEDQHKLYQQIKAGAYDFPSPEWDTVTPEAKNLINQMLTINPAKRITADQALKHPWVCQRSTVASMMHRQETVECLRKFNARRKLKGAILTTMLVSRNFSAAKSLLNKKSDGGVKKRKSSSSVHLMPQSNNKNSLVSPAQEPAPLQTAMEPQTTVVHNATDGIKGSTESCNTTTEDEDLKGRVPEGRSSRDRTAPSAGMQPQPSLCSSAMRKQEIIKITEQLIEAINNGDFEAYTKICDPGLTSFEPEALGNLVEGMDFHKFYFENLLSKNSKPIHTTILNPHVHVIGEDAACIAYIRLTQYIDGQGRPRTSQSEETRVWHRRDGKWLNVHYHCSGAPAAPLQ
Sequence of off-target kinases (Homo sapiens, UniProt Q9UK32) (Q9UK32 whole entry): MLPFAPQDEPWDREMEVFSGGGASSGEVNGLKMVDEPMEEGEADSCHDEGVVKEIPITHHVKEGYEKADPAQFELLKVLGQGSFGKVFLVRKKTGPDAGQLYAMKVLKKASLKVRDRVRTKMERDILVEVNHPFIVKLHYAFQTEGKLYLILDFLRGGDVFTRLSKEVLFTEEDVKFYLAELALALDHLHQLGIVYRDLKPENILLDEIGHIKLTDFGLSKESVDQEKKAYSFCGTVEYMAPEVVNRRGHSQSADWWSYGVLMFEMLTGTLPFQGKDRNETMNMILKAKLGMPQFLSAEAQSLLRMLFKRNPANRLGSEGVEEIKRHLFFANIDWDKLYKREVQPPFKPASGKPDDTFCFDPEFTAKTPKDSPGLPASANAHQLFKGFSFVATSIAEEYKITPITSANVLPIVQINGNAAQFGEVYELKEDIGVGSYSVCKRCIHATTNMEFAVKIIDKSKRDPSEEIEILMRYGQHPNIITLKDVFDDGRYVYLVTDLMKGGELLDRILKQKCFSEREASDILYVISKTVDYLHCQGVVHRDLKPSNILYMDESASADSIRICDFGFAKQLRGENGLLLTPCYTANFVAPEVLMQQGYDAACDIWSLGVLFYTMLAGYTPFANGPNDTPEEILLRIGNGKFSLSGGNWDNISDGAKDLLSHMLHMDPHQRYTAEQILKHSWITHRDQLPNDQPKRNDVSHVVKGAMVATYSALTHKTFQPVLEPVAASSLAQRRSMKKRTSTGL

Question: What does the source list for N#Cc1cc(-c2ncnc(Nc3ccc(N4CCN(C5COC5)CC4)cc3)n2)ccc1OC1CCOCC1 [Compound 1, 5-(4-((4-(4-(oxetan-3-yl)piperazin-1-yl)phenyl)amino)-1,3,5-triazin-2-yl)-2-((tetrahydro-2H-pyran-4-yl)oxy)benzonitrile]?
Answer: inhibition (off-target kinases [1]; read-out: % Inhibition 1): 22%; inhibition (off-target kinases [1]; read-out: % Inhibition 2): 22%; inhibition (off-target kinases [1]; read-out: % Inhibition Avg): 22%; inhibition (off-target kinases [2]; read-out: % Inhibition 1): 16%; inhibition (off-target kinases [2]; read-out: % Inhibition 2): 13%; inhibition (off-target kinases [2]; read-out: % Inhibition Avg): 14%; inhibition (off-target kinases [3]; read-out: % Inhibition 1): 14%; inhibition (off-target kinases [3]; read-out: % Inhibition 2): 17%; inhibition (off-target kinases [3]; read-out: % Inhibition Avg): 16%; inhibition (off-target kinases [4]; read-out: % Inhibition 1): 18%; inhibition (off-target kinases [4]; read-out: % Inhibition 2): 19%; inhibition (off-target kinases [4]; read-out: % Inhibition Avg): 18%; inhibition (off-target kinases [5]; read-out: % Inhibition 1): 6%; inhibition (off-target kinases [5]; read-out: % Inhibition 2): 4%; inhibition (off-target kinases [5]; read-out: % Inhibition Avg): 5%
